Marks after values point to notes of the source that are not given here.
Experiments:
caspase-3 = experiment: Example 1 immunohistochemistry: caspase-3-immunoreactive cells; assay type: in vivo, Sprague-Dawley (SD) rats; conditions: for Numbers of neurons: Caspase-3+: 29 days after neuron apoptosis
Procedure: The induction of neuron apoptosis was carried out by damaging the right hemisphere of the brain of animals. Specifically, animals were anesthetized with 2 or 3% isoflurane in the mixture of 70% N2O and 28.5% O2, and were maintained with 1 to 1.5% isoflurane in the mixture of 70% N2O and 28.5% O2. After that the temporalis muscle was bisected and reflected through an incision made midway between the eye and the eardrum canal. The proximal MCA was exposed through a subtemporal craniectomy by microdental drills without removing the zygomatic arch and without transecting the facial nerve. […] Mortality was less than 5%. For sham control, all procedures were performed in the same way, with the exception of the occlusion of the MCA.
After deparraffinized of cerebral histological paraffin sections, citrate buffer antigen (epitope) retrieval pretreatment were conducted as previously (Shi S R et al., J Histochem Cytochem. 41:1599-604(1993)). Briefly, pre-heat water bath with staining dish containing 10 mM citrate buffers (pH 6.0) until temperature reaches 95-100° C. Immerse slides in the staining dish and place the lid loosely on the staining dish. Incubate for 20 minutes and turn off the water bath. Place the staining dish at room temperature and allow the slides to cool for 20 minutes. After epitope retrivals, sections were immunostained as following steps:
Incubate sections with methanol and 0.3% H2O2 for 30 minutes for blocking endogenous peroxidase activity at room temperature and rinse in 0.01M phosphate buffered saline (PBS; pH 7.2) for 3 times;
Incubate sections with normal horse serum blocking solution (Vector Lab. Inc., Burlingame, USA. Dilution 1:100) for 1 hour to block non-specific binding of immunoglobulin at room temperature in humidity chamber, and rinse in 0.01M PBS for 3 times;
Incubate sections with primary antisera for overnight at 4° C. in humidity chamber and rinse in 0.01M PBS for 3 times;
Incubate sections with biotinylated universal secondary antibody (Vector Lab., Dilution 1:50) for 1 hour at room temperature in humidity chamber and rinse in 0.01M PBS for 3 times;
Incubate sections with ABC reagents (Vectastain Elite ABC Kit, Vector Lab., Dilution 1:50) for 1 hour at room temperature in humidity chamber and rinse in 0.01M PBS for 3 times;
Incubate sections in Peroxidae substrate kit (Vector Lab.) for 5 min at room temperature and rinse in 0.01M PBS for 3 times;
Counterstain with Mayer's hematoxylin solution and rinse in running tap water for 30 minutes;
Dehydrate through 95% ethanol for 2 minutes, 100% ethanol for 3 times and Clear in xylene for two times; and
Coverslip with permanent mounting medium and observed under light microscope (Nikkon, Japan).
Histomorphometry: The nerve cells occupied by over 10% of immunoreactivities, the density, of each antiserum, caspase-3 and PARP were regarded as immunoreactive. In the present study, the numbers of each caspase-3 and PARP-immunoreactive cells among mm^2 of ipsilateral peri-infarct/defect cerebral cortex were measured using a computer-assisted image analysis program, respectively.
(§1) All data were expressed as mean±standard deviation (S.D.) of ten rats. Multiple comparison tests for different dose groups were conducted. Variance homogeneity was examined using the Levene test (Levene A, Clin Otalary, 1981; 6:145-51). […] Statistical analyses were conducted using SPSS (Release 14K, SPSS Inc., USA; Ludbrook, Clin Exp Pharmacol Physiol, 1997; 24:294-6). In addition, the percent changes between neuron apoptosis control and mirodenafil treated rats were calculated to help the understanding of the efficacy of test material as follow equation 3. Percentage changes as compared with neuron apoptosis control (%)=[((Data of mirodenafil treated groups−Data of neuron apoptosis control)/Data of neuron apoptosis control)×100] [EQUATION 3]

[1] = tested on: neuron apoptosis-operated rats; experiment: Example 1 hindlimb placing test; assay type: in vivo, Sprague-Dawley (SD) rats
Procedure: Sensorimotor function was evaluated by use of limb placing de Ryck M et al., Stroke. 20:1383-90(1989)) and body swing (Borlongan and Sanberg, J Neurosci. 15:5372-8(1995)) tests. These tests were performed one day before neuron apoptosis to obtain a baseline and then at 1, 3, 7, 14, 21 and 28 days after neuron apoptosis. Behavioral tests were done before drug administration on days when both were scheduled. The investigator performing the surgery and behavioral assessments was blinded to treatment assignment.
Limb placing test: Forelimb and hindlimb placement were assessed independently. For the forelimb placing test, the rats were held by their torso with their forepaws hanging free and moved slowly toward the edge of a tabletop, stopping short of touching the vibrissae (for vision-induced placing), touching the vibrissae (for vibrissae-induced placing), making light contact with the front of the forepaw to the edge of the tabletop (for tactile-induced placing), and pressing the forepaws to the edge of the table with increased pressure (for proprioceptive-induced placing). Hindlimb placing was conducted in the same manner as above but with tactile and proprioceptive stimulation applied to the front/top of each hindlimb. Each limb for placing in response to visual, vibrissae, tactile, and proprioceptive stimulation are scored in the following manner (A total of 12 points in forelimb placing test and 6 points in hindlimb placing test means maximal neurological deficit, and 0 points means normal performance):
Normal performance=0 points;
Performance with unilateral limb=1 point;
Performance with a delay (2 seconds) and/or incomplete=2 point;
as §1

## CCCOc1ccc(S(=O)(=O)N2CCN(CCO)CC2)cc1-c1nc2c(CCC)cn(CC)c2c(=O)[nH]1 [Mirodenafil, mirodenafil]
caspase-3; 0.5 mg/kg
  numbers of caspase-3-immunoreactive neurons, change as compared with neuron apoptosis control: −33.43%
caspase-3; 0.5 mg/kg s.c. once a day
  Numbers of neurons: Caspase-3+: 43.80 ± 10.37^ab cells/mm^2 of cerebral cortex
caspase-3; 1 mg/kg
  numbers of caspase-3-immunoreactive neurons, change as compared with neuron apoptosis control: −76.44%
caspase-3; 1 mg/kg s.c. once a day
  Numbers of neurons: Caspase-3+: 15.50 ± 3.57^ab cells/mm^2 of cerebral cortex
caspase-3; 2 mg/kg
  numbers of caspase-3-immunoreactive neurons, change as compared with neuron apoptosis control: −77.96%
caspase-3; 2 mg/kg s.c. once a day
  Numbers of neurons: Caspase-3+: 14.50 ± 3.69^ab cells/mm^2 of cerebral cortex
[1]; 0.5 mg/kg group, day 1 after operation (before drug administration)
  Hindlimb placing test score: 6.00 ± 0.00^d
[1]; 0.5 mg/kg group, day −1 (baseline)
  Hindlimb placing test score: 0.50 ± 0.71
[1]; 0.5 mg/kg s.c. once a day, day 3 after operation
  Hindlimb placing test score: 4.00 ± 0.82^a
[1]; 0.5 mg/kg s.c. once a day, day 7 after operation
  Hindlimb placing test score: 3.20 ± 0.79^a
[1]; 0.5 mg/kg s.c. once a day, day 14 after operation
  Hindlimb placing test score: 2.80 ± 0.63^d
[1]; 0.5 mg/kg s.c. once a day, day 21 after operation
  Hindlimb placing test score: 2.60 ± 0.70^a
[1]; 0.5 mg/kg s.c. once a day, day 28 after operation
  Hindlimb placing test score: 2.40 ± 0.97^a
[1]; 0.5 mg/kg, 3 days after surgery
  hindlimb placing test scores, change as compared with neuron apoptosis control: −6.98%
[1]; 0.5 mg/kg, 7 days after surgery
  hindlimb placing test scores, change as compared with neuron apoptosis control: −8.57%
[1]; 0.5 mg/kg, 14 days after surgery
  hindlimb placing test scores, change as compared with neuron apoptosis control: −9.68%
[1]; 0.5 mg/kg, 21 days after surgery
  hindlimb placing test scores, change as compared with neuron apoptosis control: −13.33%
[1]; 0.5 mg/kg, 28 days after surgery
  hindlimb placing test scores, change as compared with neuron apoptosis control: −11.11%
[1]; 1 mg/kg group, day 1 after operation (before drug administration)
  Hindlimb placing test score: 6.00 ± 0.00^d
[1]; 1 mg/kg group, day −1 (baseline)
  Hindlimb placing test score: 0.30 ± 0.48
[1]; 1 mg/kg s.c. once a day, day 3 after operation
  Hindlimb placing test score: 3.50 ± 0.71^ac
[1]; 1 mg/kg s.c. once a day, day 7 after operation
  Hindlimb placing test score: 2.50 ± 0.71^ab
[1]; 1 mg/kg s.c. once a day, day 14 after operation
  Hindlimb placing test score: 2.10 ± 0.57^df
[1]; 1 mg/kg s.c. once a day, day 21 after operation
  Hindlimb placing test score: 1.70 ± 0.48^ab
[1]; 1 mg/kg s.c. once a day, day 28 after operation
  Hindlimb placing test score: 1.10 ± 0.74^ab
[1]; 1 mg/kg, 3 days after surgery
  hindlimb placing test scores, change as compared with neuron apoptosis control: −18.80%
[1]; 1 mg/kg, 7 days after surgery
  hindlimb placing test scores, change as compared with neuron apoptosis control: −28.57%
[1]; 1 mg/kg, 14 days after surgery
  hindlimb placing test scores, change as compared with neuron apoptosis control: −32.26%
[1]; 1 mg/kg, 21 days after surgery
  hindlimb placing test scores, change as compared with neuron apoptosis control: −43.33%
[1]; 1 mg/kg, 28 days after surgery
  hindlimb placing test scores, change as compared with neuron apoptosis control: −59.26%
[1]; 2 mg/kg group, day 1 after operation (before drug administration)
  Hindlimb placing test score: 6.00 ± 0.00^d
[1]; 2 mg/kg group, day −1 (baseline)
  Hindlimb placing test score: 0.40 ± 0.52
[1]; 2 mg/kg s.c. once a day, day 3 after operation
  Hindlimb placing test score: 3.30 ± 0.67^ab
[1]; 2 mg/kg s.c. once a day, day 7 after operation
  Hindlimb placing test score: 2.30 ± 0.82^ab
[1]; 2 mg/kg s.c. once a day, day 14 after operation
  Hindlimb placing test score: 1.80 ± 1.03^de
[1]; 2 mg/kg s.c. once a day, day 21 after operation
  Hindlimb placing test score: 1.60 ± 0.84^ab
[1]; 2 mg/kg s.c. once a day, day 28 after operation
  Hindlimb placing test score: 1.10 ± 0.57^ab
[1]; 2 mg/kg, 3 days after surgery
  hindlimb placing test scores, change as compared with neuron apoptosis control: −23.26%
[1]; 2 mg/kg, 7 days after surgery
  hindlimb placing test scores, change as compared with neuron apoptosis control: −34.29%
[1]; 2 mg/kg, 14 days after surgery
  hindlimb placing test scores, change as compared with neuron apoptosis control: −41.94%
[1]; 2 mg/kg, 21 days after surgery
  hindlimb placing test scores, change as compared with neuron apoptosis control: −46.67%
[1]; 2 mg/kg, 28 days after surgery
  hindlimb placing test scores, change as compared with neuron apoptosis control: −59.26%
